Read-outs that look alike come from different tables or passages of the source. No end group written: not given here.
Columns and labels:
[1] = system: polymorphonuclear leukocyte adhesion to TNF activated endothelial cells; assay type: cell-based, human; details: for Average % Change of PMN Adhesion to TNF Activated ECs: average over PMN donors (# donors in parentheses)
Procedure: Leukocyte adherence can be measured using several assays known in the art, and the preferred assay is described by Charo, et al., 1985, Blood, 65:473. Briefly, the assay consists of labelling leukocytes with an appropriate label, incubating them with endothelial cells and determining the number of leukocytes that adhere. Preferably the cells are labelled with a gamma ray emitting isotope and the preferred labels are ^111 Indium-oxide or ^51 chromium.
Leukocytes may be isolated from human donors using standard techniques. This generally consists of isolating blood in a physiologically balanced salt solution containing an appropriate anticoagulant, and separating the leukocytes by an appropriate separation step, preferably on Ficoll-Hypaquegradients. Contaminating erythrocytes can be removed by hypotonic lysis. The resulting leukocytes are suspended in a physiologically buffered solution, pH 7.4. The preferred physiological buffered solution is Hank's balanced salt solution that is calcium and magnesium free.
The isolated leukocytes can then be labelled by incubating them for an appropriate time, generally 15 minutes, with the desired radioisotope at a predetermined concentration. The radiolabelled cells are washed to remove unincorporated label, and then suspended in an appropriate solution to perform the adhesion assay described below.
Endothelial cells can be prepared from a number of sources and by several techniques known in the art. Preferably they are obtained from human umbilical veins using the procedure of Charo et al., above. Generally, endothelial cells are isolated by enzymatic digestion of the umbilical veins using, preferably, collagenase as described by Jaffe, E. A., et al., 1973, J. of Clin. Invest, 52:2745. The cells are grown on an appropriate tissue culture substratum, preferably gelatine-coated surfaces.
The endothelial cells may be grown in a variety of tissue culture media containing appropriate supplements such as an appropriate concentration of fetal calf serum, and other supplements/additives routinely utilized by those skilled in this art that are recognized as being favorable for endothelial cells. The endothelial cells may be passaged with a dilute solution of an appropriate protease, and if desired a metal ion chelator. Preferably a solution consisting of 0.05 to 0.25% trypsin and 0.02% EDTA is used. To ensure that the cells are indeed endothelial cells, they are tested by immunofluorescence for Factor VIII antigen, a known endothelial cell marker.
Leukocyte adherence to endothelial cell monolayers may be determined as follows. Early passage endothelial cells, generally not beyond the fifth passage, are cultured on an appropriate substratum and in a suitable cell culture medium. The culture substratum is preferably pre-coated with an appropriate substance that enhances the adherence of the endothelial cells. Several such substances are known including fibronectin, poly-L-lysine, gelatin and laminin. Fibronectin is preferred. An appropriate culture substratum is a 96 well micro titer plate, and a suitable medium is Medium 199 containing fetal calf serum and other supplements known to be beneficial for the growth and maintenance of endothelial cells that are well known to those skilled in the art. Prior to adding a predetermined number of labelled leukocytes, the endothelial cell monolayer is washed with a physiologically balanced salt solution containing a reduced amount of fetal calf serum, preferably 1%. The preferred solution is RPMI supplemented with 1% fetal calf serum.
The endothelial cell monolayer containing added leukocytes is incubated for a time sufficient to permit maximum adherence of the leukocytes, and preferably this is conducted at 37° C. for 30 minutes in an appropriate cell culture atmosphere. Generally this would consist of growing and incubating the cells for the assay period in 5% CO2, 95% air, and 95% humidity. […]

[2] = system: polymorphonuclear leukocyte migration; experiment: Chemotaxis of polymorphonuclear leukocytes (trans-well, zymosan-activated human serum); assay type: cell-based
Procedure: The materials and methods for ascertaining the chemotactic inhibitory properties of peptides are generally known in the art, and the preferred procedure is described by Capsoni, et al., 1989, J. of Immunol. Meth., 120:125. Generally, chemotaxis is determined by positioning the leukocytes and a chemotactic substance on opposite sides of a membrane in appropriate culture media. The preferred apparatus for doing a chemotaxis assay is produced by Costar Corporation, Cambridge, Mass., and is termed the trans-well cell culture apparatus. […] If a substance is being tested for inhibitory activity this can be achieved by combining it with the leukocytes or the chemotactic substance.
The procedure of Capsoni, et al., above, was followed with the following modifications. Leukocytes may be isolated and labelled with ^111 Indium as described for the adhesion assay, above. The cells are resuspended after labelling in an appropriate cell culture medium at about 5×10^6 cells/ml. Next, a desired amount of the cell suspension is mixed with a predetermined amount of the peptide(s) to be tested for inhibitory activity, and the mixture added to an appropriate filter device. Three μm-pore membranes are situated in the wells of a 24 trans-well tissue culture plate. The cell/inhibitory peptide mixture is incubated for a short time at 37° C. to acclimate the cells to the membrane surface, and to provide sufficient time for them to settle onto the membrane surface. Next, inserts are set in wells containing cell culture media. The media contains zymosan-activated human serum at about 0.5%. Zymosan activation generates complement-derived chemotactic factors which attract the leukocytes through the pores of the membrane. This media was also prewarmed for an appropriate time prior to addition to the cell culture wells. After a 30 minute incubation period at 37° C., the number of leukocytes that have migrated through the membrane filter, in the presence or absence of CD18 peptides, is readily determined by counting the amount of ^111 Indium present in the media. This may be facilitated by adding an appropriate detergent at an appropriate concentration to the media in the wells prior to removing an aliquot for counting. In this way, the inhibitory activities of the peptide being tested could be determined.
Many of the materials and methods used to test the inhibitory activity of the CD18 peptides on the chemotactic response of the polymorphonuclear leukocytes are similar or identical to those used to perform the adhesion assays described in Example 1. Polymorphonuclear leukocytes were isolated and labelled with ^111 Indium as described before, and the cells were suspended in RPMI 1640 culture medium at a concentration of 5×10^6 /ml. Next, 75 μl of the cell suspension and 25 μl of media containing a desired concentration of a CD18 peptide were added to trans-well inserts, and the mixture was incubated at 37° C. for 10 minutes.
To the bottom wells of the 24-well plate 0.6 ml of media containing 0.5% zymosan-activated human serum was added. This solution was also warmed to 37° C. for 10 minutes prior to use.
Next, the assay was conducted by incubating the trans-well inserts containing the cell suspension with the desired CD18 peptide in the 24-well plates at 37° C. for 30 minutes. Subsequently, the inserts were removed, and 60 μl of a 10% sodium dodecyl sulphate solution was added to the wells of the 24-well plate. The plates were incubated with gentle shaking at room temperature for 15 minutes, and 110 μl aliquots were removed and the amount of ^111 Indium determined using a gamma-counter.

Sequence	Average % Change of PMN Adhesion to TNF Activated ECs ([1]; 10^-4 M) [%]	Average % Change of PMN Adhesion to TNF Activated ECs ([1]; 10^-6 M) [%]	Average % Change of PMN Adhesion to TNF Activated ECs ([1]; 10^-8 M)	percent inhibition (-) or enhancement of polymorphonuclear leukocyte migration ([2]; 10^-4 M, donor 195) [%]	percent inhibition (-) or enhancement of polymorphonuclear leukocyte migration ([2]; 10^-4 M, donor 499) [%]	percent inhibition (-) or enhancement of polymorphonuclear leukocyte migration ([2]; 10^-4 M, donor 591) [%]	percent inhibition (-) or enhancement of polymorphonuclear leukocyte migration ([2]; 10^-4 M, donor 593) [%]	percent inhibition (-) or enhancement of polymorphonuclear leukocyte migration ([2]; 10^-5 M, donor 195) [%]	percent inhibition (-) or enhancement of polymorphonuclear leukocyte migration ([2]; 10^-5 M, donor 499) [%]	percent inhibition (-) or enhancement of polymorphonuclear leukocyte migration ([2]; 10^-5 M, donor 591) [%]	percent inhibition (-) or enhancement of polymorphonuclear leukocyte migration ([2]; 10^-5 M, donor 593) [%]	percent inhibition (-) or enhancement of polymorphonuclear leukocyte migration ([2]; 10^-6 M, donor 195) [%]	percent inhibition (-) or enhancement of polymorphonuclear leukocyte migration ([2]; 10^-6 M, donor 499) [%]	percent inhibition (-) or enhancement of polymorphonuclear leukocyte migration ([2]; 10^-6 M, donor 591) [%]	percent inhibition (-) or enhancement of polymorphonuclear leukocyte migration ([2]; 10^-6 M, donor 593) [%]	concentration of peak inhibitory activity in the PMN adhesion assay [1]	Average % Change of PMN Adhesion to TNF Activated ECs ([1]; 10^-5 M) [%]	Average % Change of PMN Adhesion to TNF Activated ECs ([1]; 10^-7 M)
VGKQLISGNLDAPEGGLDAMMQVA [Peptide 5-24, NH2 --Val--Gly--Lys--Gln--Leu--Ile--Ser--Gly--Asn--Leu--Asp--Ala--Pro--Glu--Gly--Gly--Leu--Asp--Ala--Met--Met--Gln--Val--Ala--COOH]	-17	-13	-6%	-52	0	51	-33	-56	-15	55	12	-22	-26	52	-4	–	–	–
YPIDLYYLMDLSYSMLDDLRNVKKLG [Peptide 1-26, NH2 --Tyr--Pro--Ile--Asp--Leu--Tyr--Tyr--Leu--Met--Asp--Leu--Ser--Tyr--Ser--Met--Leu--Asp--Asp--Leu--Arg--Asn--Val--Lys--Lys--Leu--Gly--COOH]	-41	-6	+9%	19	8	-9	-50	-41	-3	-36	-19	-37	13	-39	-14	10^-4 to 10^-5 M	-33	+24%
